Read-outs that look alike come from different tables or passages of the source.

One data set addresses T1, 5'-Lipoxygenase (Homo sapiens, UniProt P09917).
T1 construct: human leukocyte tissue culture cells; endogenous in cells; host or cells: Human peripheral leukocytes, RPMI-1788
T1 sequence (P09917 1-674): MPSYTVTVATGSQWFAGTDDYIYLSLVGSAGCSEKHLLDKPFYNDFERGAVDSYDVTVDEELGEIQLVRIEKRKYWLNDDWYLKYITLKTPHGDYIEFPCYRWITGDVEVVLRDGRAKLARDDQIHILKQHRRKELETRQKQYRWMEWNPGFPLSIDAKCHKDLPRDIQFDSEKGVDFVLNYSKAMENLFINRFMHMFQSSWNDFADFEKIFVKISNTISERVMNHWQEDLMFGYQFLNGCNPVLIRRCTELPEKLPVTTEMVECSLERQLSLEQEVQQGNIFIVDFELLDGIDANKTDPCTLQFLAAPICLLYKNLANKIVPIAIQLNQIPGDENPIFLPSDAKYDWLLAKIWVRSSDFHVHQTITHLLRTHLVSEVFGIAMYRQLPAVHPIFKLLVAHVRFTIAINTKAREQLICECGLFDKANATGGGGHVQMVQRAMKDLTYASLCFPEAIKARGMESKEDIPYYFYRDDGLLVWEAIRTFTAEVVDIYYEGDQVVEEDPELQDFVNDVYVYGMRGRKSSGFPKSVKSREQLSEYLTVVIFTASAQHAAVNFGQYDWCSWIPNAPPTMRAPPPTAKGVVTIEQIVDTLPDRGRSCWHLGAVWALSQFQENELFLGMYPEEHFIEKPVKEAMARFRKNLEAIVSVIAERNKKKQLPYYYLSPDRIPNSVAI
As to the kind of experiment: Human leukocyte 5'-lipoxygenase. In kind it is cell-based.

The target in data set [1] is T2, Cathepsin D (Mus musculus, UniProt P18242).
T2 construct: azocasein assay pH 5.0
T2 sequence (P18242 65-410): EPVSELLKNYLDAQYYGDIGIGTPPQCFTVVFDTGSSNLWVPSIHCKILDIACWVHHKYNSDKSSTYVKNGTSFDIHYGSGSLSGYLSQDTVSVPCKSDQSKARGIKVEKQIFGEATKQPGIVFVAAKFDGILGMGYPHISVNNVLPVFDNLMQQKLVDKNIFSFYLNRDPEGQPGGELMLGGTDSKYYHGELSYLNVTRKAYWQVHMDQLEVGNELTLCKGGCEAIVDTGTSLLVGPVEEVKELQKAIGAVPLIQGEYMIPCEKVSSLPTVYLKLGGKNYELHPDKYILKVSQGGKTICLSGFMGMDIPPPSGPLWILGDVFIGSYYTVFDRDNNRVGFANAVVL
The data set can be described thus: Mouse hepatic lysosomal cathepsin D activity. In kind it is biochemical. An excerpt: (§1) 1. Cf1 male mouse hepatic 10% homogenates in 0.25M sucrose+0.001MEDTA,pH 7.2.
(§2) Lysosomal Enzymes - free and total [triton X-100].
(§3) 2. Acid Cathepsin D -azocasein-pH 5.0, hydrolytic azo-peptide produce 366 nm.
Cathepsin azo casein activity -

Data set [2] concerns Cathepsin. As to the kind of experiment: Human leukocyte cathepsin. Conditions: Table XIX; read-out: Human Leukocyte IC50 (head gives no enzyme; beside Cathepsin D). In kind it is cell-based.
Text: 5. Human peripheral leukocytes, RPMI-1788
as §3

For data set [3], the target named is T3, Cathepsin (Rattus norvegicus, UniProt P24268).
T3 construct: azocasein assay pH 5.0
T3 sequence (P24268 65-407): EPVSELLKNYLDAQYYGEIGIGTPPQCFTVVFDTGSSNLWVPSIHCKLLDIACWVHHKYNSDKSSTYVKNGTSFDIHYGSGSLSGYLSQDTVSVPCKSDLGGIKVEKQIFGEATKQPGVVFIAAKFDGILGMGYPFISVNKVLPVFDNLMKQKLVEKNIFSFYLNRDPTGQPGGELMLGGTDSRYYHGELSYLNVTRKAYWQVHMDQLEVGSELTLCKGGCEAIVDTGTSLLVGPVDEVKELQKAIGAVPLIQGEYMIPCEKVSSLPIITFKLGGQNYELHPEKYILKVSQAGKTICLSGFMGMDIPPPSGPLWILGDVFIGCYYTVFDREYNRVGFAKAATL
The data set can be described thus: Rat PMNs cathepsin activity. In kind it is cell-based. Conditions: pH 5; 5 × 10^-6 M, N=6; read-out: Rat PMNs Cathep.
Text: 2. PMNs-polymorphonuclear neutrophils-rat peritoneal cavity 0.5% oyster glycogen.
as §3

A further data set can be described thus: in vivo. The settings on record: mouse, Table 1, N=6. The protocol: Amine borane compounds (0 to 100 mg/kg) were administered to CF1 male mice as a single injection with six mice for each dosage. Mice were weighed daily and the number of deaths was recorded each day for a 14 day period. The LD50 value was determined by the procedure of S.C. Gad and C.S. Weil, "Statistics for Toxicologists" in Principles and Methods of Toxicology, A.W. Hayes, Ed., 2nd Edition, P 435-483 Raven Press, New York 1982.

Data set [4] relates to Cf1 male mice. As to the kind of experiment: Anti-inflammatory screen, Winter's test, 2% carrageenan hind foot. It counts as in vivo. Conditions: Table XIV; unit inferred; unit assumed. The protocol:
Anti-inflammatory Screen- Cf1 - male mice-Winter's Test 2% carrageenan S.C. plantar surface of hind foot, drugs administered @8 or 10 mg/kg I.P. 2X
Winter, C.A., et al, Proc. Soc.

Data set [5] deals with Prostaglandin cyclooxygenase. The data set can be described thus: Human osteoporosis fibroblasts prostaglandin cyclooxygenase activity. The settings on record: Table XI, 60 min incubation, read-out: Prostaglandin Cyclooxygense IC50. It counts as cell-based.
Data set [6] concerns Cf1 male mice. As to the kind of experiment: Writhing reflex, 0.6% acetic acid. It counts as in vivo. Conditions: Mus musculus, ip; Table IV. Background: An intraperitoneal irritant provokes the stretching counted in writhing tests.
Data set [7] relates to Aryl sulphatase. As to the kind of experiment: Human osteoporosis fibroblasts aryl sulphatase activity. Conditions: Table X; human osteoporosis fibroblasts; read-out: Aryl Sulphatase IC50. In kind it is cell-based. An excerpt: (§4) 3. Aryl sulphatase- p-nitrocatechol sulfate, pH
(§5) 5. 8 p-nitro-catechol product 510 nm.

Data set [8] has as its system Aryl sulphatase. The data set can be described thus: Mouse macrophage aryl sulphatase activity. The settings on record: 60 min incubation, read-out: Aryl Sulphatase IC50. In kind it is cell-based.
Another data set relates to Sprague Dawley male rats. As to the kind of experiment: Chronic adjuvant arthritis screen, Mycobacterium butyricum. It counts as in vivo. Conditions: Table XIV; unit not given.
Data set [9] deals with Acid phosphatase. As to the kind of experiment: Mouse macrophage acid phosphatase activity. The settings on record: 60 min incubation, read-out: Acid Phosphatase IC50. In kind it is cell-based.
In data set [10] the test system is Prostaglandin cyclooxygenase. The data set can be described thus: Mouse macrophage prostaglandin cyclooxygenase activity. In kind it is cell-based. The settings on record: 60 min incubation, read-out: Prostaglandin Cyclooxygenase IC50. An excerpt: (§6) 3. Mouse macrophages J774A.1 BALB/c
Prostaglandin synthetase purified beef seminal vesicle ^3 H arachidonic acid (86.2 Ci/mmol), tlc separation.

Data set [11] relates to Trypsin. As to the kind of experiment: Human osteoporosis fibroblasts trypsin (BAEE) activity. It counts as cell-based. The settings on record: Table XI; human osteoporosis fibroblasts, 60 min incubation; read-out: Trypsin BAEE IC50. An excerpt: 1. Trypsin- N-benzoyl-L-arginine ethyl ester pH 8.0, hydrolytic product 253 nm.
Data set [12] has as its target Aryl sulphatase. The data set can be described thus: Mouse hepatic lysosomal aryl sulphatase activity. Conditions: Table XV, 60 min incubation. In kind it is biochemical.
Text: as §1, §2, §4, §5

In data set [13] the test system is Trypsin. As to the kind of experiment: Mouse macrophage trypsin (BAEE) activity. It counts as cell-based. Conditions: 60 min incubation, read-out: Trypsin BAEE IC50.
Data set [14] deals with Elastase. The data set can be described thus: Human osteoporosis fibroblasts elastase activity. In kind it is cell-based. The settings on record: Table XI; human osteoporosis fibroblasts, 60 min incubation; read-out: Elastase IC50. An excerpt:
2. Elastase- N-succinyl-L-alanyl-L-alanine-p-nitroanilide, pH 8.0, p-nitro anilide 410 nm.

The target of data set [15] is T4, Cathepsin D (Homo sapiens, UniProt P07339).
T4 construct: azocasein assay pH 5.0
T4 sequence (P07339 65-412): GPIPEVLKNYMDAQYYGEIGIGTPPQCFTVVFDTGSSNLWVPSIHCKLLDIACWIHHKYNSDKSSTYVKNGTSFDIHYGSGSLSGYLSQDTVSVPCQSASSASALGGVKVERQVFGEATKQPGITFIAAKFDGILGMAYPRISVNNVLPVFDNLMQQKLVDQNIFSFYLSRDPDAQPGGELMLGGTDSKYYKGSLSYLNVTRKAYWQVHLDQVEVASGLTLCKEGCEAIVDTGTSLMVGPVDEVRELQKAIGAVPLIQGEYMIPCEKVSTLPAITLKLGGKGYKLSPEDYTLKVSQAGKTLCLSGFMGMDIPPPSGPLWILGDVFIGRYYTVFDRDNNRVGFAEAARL
The data set can be described thus: Human osteoporosis fibroblasts cathepsin D (azo-casein) activity. The settings on record: Table X; human osteoporosis fibroblasts, DMEM +10% FCS + P/S; read-out: Cathepsin D IC50. In kind it is cell-based.
Text: Osteoporosis Human Fibroblast-CRL-1140, Be SA1

The subject of data set [16] is Acid phosphatase. As to the kind of experiment: Human osteoporosis fibroblasts acid phosphatase activity. The settings on record: Table X; human osteoporosis fibroblasts; read-out: Acid Phosphatase IC50. In kind it is cell-based. The text has this: (§7) 1. Acid phosphatase -beta glycerol-3-phosphate, pH 5.0, released IP 720 nm.
Another data set deals with Sprague Dawley Rats. As to the kind of experiment: Anti-inflammatory activity in Sprague Dawley rats. Conditions: Table IV; 8 mg/kg I.P. It counts as in vivo.
Data set [17] concerns Elastase. The data set can be described thus: Mouse macrophage elastase activity. It counts as cell-based. The settings on record: 60 min incubation, read-out: Elastase IC50.
Data set [18] concerns the target T2, Cathepsin D. The data set can be described thus: Mouse macrophage cathepsin D activity. It counts as cell-based. The settings on record: Table XVII; mouse macrophage, 60 min incubation; read-out: Cathepsin D pH 5.0 IC50.
Text: as §6, §3

Data set [19] deals with Acid phosphatase. As to the kind of experiment: Mouse hepatic lysosomal acid phosphatase activity. In kind it is biochemical. Conditions: Table XV; mouse hepatic, 60 min incubation.
Text: as §1, §2, §7
Acid phosphatase activity -

[20] abbreviates: read-out: Mouse Hepatic Cathepsin D IC50, Table XIX.
Setting [21] is: Table VII, mouse macrophage cultured cells.

For `CC(C)[Si](OC[C@@H]1CC[C@H](n2ccc(N)[n+]([BH2-]C#N)c2=O)O1)(C(C)C)C(C)C` [Compound 42], the values for the IC50 on 5'-Lipoxygenase, on Cathepsin D [1] (setting [20]) and with Cathepsin [2] were 6.64 µM, 30.6 µM and 7.31 µM, respectively.
In the case of `[BH3-][NH+]1CCOCC1` [Compound 1], the activity at 5 µM at Cathepsin [3] is 93%; at Cathepsin D [1] (pH 5, read-out: Mouse Liver Cathep.) it was 107%. For the same compound, in the data set “in vivo”, the LD50 (in general, the dose expected to kill half of the subjects tested) at 336 h is 475 mg/kg.
`BC(=O)O` [Compound 13] came in with an Anti-Inflammation Cf1 Mice with Cf1 male mice [4] of 41.7%. The IC50 (commonly the point on the concentration scale where inhibition reaches its midpoint) stood at 6.19 µM at Cathepsin D [1] (Table XV, mouse hepatic, 60 min incubation, read-out: Cathepsin D IC50); 5.51 µM in data set [5]; 8.19 µM in the data set on Aryl sulphatase [7]; 5.43 µM in the data set on Aryl sulphatase [8] (setting [21]); 5.43 µM in the data set on Aryl sulphatase [8] (Table XVII, mouse macrophage); 0.82 µM in the data set on Acid phosphatase [9] (setting [21]). The IC50 with Acid phosphatase [9] (Table XVII, mouse macrophage) worked out at 0.82 µM; in data set [10] (Table VIII, mouse macrophages) it was 6.79 µM; in data set [10] (Table XVIII, mouse macrophage) it was 15.6 µM; with Trypsin [11] it was 7.51 µM; against Aryl sulphatase [12], 4.34 µM; in the data set with Trypsin [13] (Table VIII, mouse macrophages), 2.25 µM. For the same compound, the IC50 with Trypsin [13] (Table XVIII, mouse macrophage) is 2.25 µM; in the data set on Elastase [14], 3.01 µM; on Cathepsin D [15], 1.19 µM; in the data set with Acid phosphatase [16], 6.5 µM; in the data set on Elastase [17] (Table VIII, mouse macrophages), 3.07 µM; in the data set with Elastase [17] (Table XVIII, mouse macrophage) it was 3.07 µM. Moreover, the IC50 on Cathepsin D [18] was determined as 4.57 µM; against Acid phosphatase [19], 4 µM. The response vs control in vivo at 20 mg/kg in the data set on Cf1 male mice [6] came to 17.4%. In the data set on Sprague Dawley male rats, the “Anti-Arthritis Rats” value is recorded as 55.2. The “Anti-Inflammatory Activity Sprague Dawley Rats” value in the data set on Sprague Dawley Rats turned out to be 55 % Control.
Turning to `CCOC(=O)[BH2-][N+](C)(C)C` [Compound 6], on Cathepsin [3], the activity at 5 µM was determined as 16%. The same compound displayed an LD50 at 336 h in the data set “in vivo” of 140 mg/kg.
As for `CC(C)[Si](OC[C@H]1O[C@@H](n2ccc(N)nc2=O)C[C@@H]1O[Si](C(C)C)(C(C)C)C(C)C)(C(C)C)C(C)C` [Compound 38], the IC50 against 5'-Lipoxygenase amounted to 7.72 µM; on Cathepsin D [1] (setting [20]) it was 59.7 µM; in the data set on Cathepsin [2] it was 13.9 µM.
For `N#C[BH2-][n+]1c(N)ccn([C@H]2C[C@H](O)[C@@H](CO)O2)c1=O` [Compound 39, 2'-Deoxycytidine-N3-cyanoborane], the IC50 at 5'-Lipoxygenase (Table XIX, read-out: Leukocyte 5' lipoxygenase IC50) came to 12.8 µM; at Cathepsin D [1] (Table XIX, read-out: Mouse Hepatic Cathepsin D IC50), 26 µM; in the data set on Cathepsin [2] it was 8.72 µM.

For the origin of these results see patent US5312816A, “Method of combatting osteoporosis in mammalian subjects, utilizing organic boron compounds” (priority 1993, dated 1994).
